Results: the supplement of paper PMC5908809

What was measured:
[1] = test system: normal NK cells expanded with K562-aAPC; experiment: percent inhibition of viability; higher = more inhibition; conditions: 72 h, IL-2 2.5 ng/mL
Description: (§1)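 Drug sensitivity and resistance testing on K562-aAPC-expanded normal NK cells: 5 concentrations (10-fold steps over a 10,000-fold range), 72 h at 37 °C, viability by CellTiter-Glo normalised to DMSO and benzethonium chloride controls; DSS from the fitted curve.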

DERL-7 (IL-2 2.5 ng/mL) [2] = experiment: as above; conditions: 72 h
IMC-1 (IL-2 20 ng/mL) [3] = experiment: as above; conditions: 72 h
KAI3 (IL-2 2.5 ng/mL) [4] = experiment: as above; conditions: 72 h
KHYG-1 (IL-2 2.5 ng/mL) [5] = experiment: as above; conditions: 72 h
NK-92 (IL-2 2.5 ng/mL) [6] = experiment: as above; conditions: 72 h
NK-YS (IL-2 2.5 ng/mL) [7] = experiment: as above; conditions: 72 h
NKL (IL-2 2.5 ng/mL) [8] = experiment: as above; conditions: 72 h
SNK-6 (IL-2 2.5 ng/mL) [9] = experiment: as above; conditions: 72 h
YT (IL-2 2.5 ng/mL) [10] = experiment: as above; conditions: 72 h
[11] = test system: normal primary NK cells, pool 1 (3 donors) (IL-2 2.5 ng/mL); experiment: as above; conditions: 72 h
[12] = test system: normal primary NK cells, pool 1 (3 donors), resting (IL-2 0 ng/mL); experiment: as above; conditions: 72 h
[13] = test system: normal primary NK cells, pool 2 (3 donors) (IL-2 2.5 ng/mL); experiment: as above; conditions: 72 h
[14] = test system: normal primary NK cells, pool 3 (3 donors) (IL-2 2.5 ng/mL); experiment: as above; conditions: 72 h
[15] = test system: normal NK cells expanded with K562-aAPC; experiment: drug sensitivity score (DSS) (DSS units); higher = more sensitive; extreme values may be limits of the assay; conditions: 72 h; IL-2 2.5 ng/mL
Description: as §1

DERL-7 (IL-2 2.5 ng/mL) [16] = experiment: as above; conditions: 72 h
IMC-1 (IL-2 20 ng/mL) [17] = experiment: as above; conditions: 72 h
KAI3 (IL-2 2.5 ng/mL) [18] = experiment: as above; conditions: 72 h
KHYG-1 (IL-2 2.5 ng/mL) [19] = experiment: as above; conditions: 72 h
NK-92 (IL-2 2.5 ng/mL) [20] = experiment: as above; conditions: 72 h
NK-YS (IL-2 2.5 ng/mL) [21] = experiment: as above; conditions: 72 h
NKL (IL-2 2.5 ng/mL) [22] = experiment: as above; conditions: 72 h
SNK-6 (IL-2 2.5 ng/mL) [23] = experiment: as above; conditions: 72 h
YT (IL-2 2.5 ng/mL) [24] = experiment: as above; conditions: 72 h
[25] = test system: normal primary NK cells, pool 1 (3 donors) (IL-2 2.5 ng/mL); experiment: as above; conditions: 72 h
[26] = test system: normal primary NK cells, pool 1 (3 donors), resting (IL-2 0 ng/mL); experiment: as above; conditions: 72 h
[27] = test system: normal primary NK cells, pool 2 (3 donors) (IL-2 2.5 ng/mL); experiment: as above; conditions: 72 h
[28] = test system: normal primary NK cells, pool 3 (3 donors) (IL-2 2.5 ng/mL); experiment: as above; conditions: 72 h

CN1CCC(CNc2ccc3ncc(-c4cccc(OC(F)(F)F)c4)n3n2)CC1 [SGI-1776] (max concentration tested 10000 nM)
percent inhibition of viability [%]
Conditions	1 nM	10 nM	100 nM	1000 nM	10000 nM
DERL-7 (IL-2 2.5 ng/mL) [2]	4.46	1.8	11.3	43.9	101
IMC-1 (IL-2 20 ng/mL) [3]	-2.53	-0.64	0.12	-0.28	101
KAI3 (IL-2 2.5 ng/mL) [4]	-4.36	-2.13	-0.56	14.2	104
KHYG-1 (IL-2 2.5 ng/mL) [5]	2.2	0.67	5.12	10.8	104
NK-92 (IL-2 2.5 ng/mL) [6]	0.53	2.3	2.24	6.57	105
NK-YS (IL-2 2.5 ng/mL) [7]	2.39	2.07	3.08	7.09	105
NKL (IL-2 2.5 ng/mL) [8]	-15.4	-12.2	-2.55	18.8	103
SNK-6 (IL-2 2.5 ng/mL) [9]	11.8	-1.96	7.5	-1.42	101
YT (IL-2 2.5 ng/mL) [10]	2.03	-1.52	2.24	5.9	105
[1]	0.39	2.03	3.74	25.6	101
[11]	-1.59	-15.9	0.28	11.6	101
[12]	4.88	-2.56	18.3	29.4	99.8
[13]	-5.28	-4.01	7.14	23.6	102
[14]	-9.4	-9.39	-5.33	7.82	100

Conditions	drug sensitivity score
DERL-7 (IL-2 2.5 ng/mL) [16]	10.6
IMC-1 (IL-2 20 ng/mL) [17]	5.65
KAI3 (IL-2 2.5 ng/mL) [18]	7.99
KHYG-1 (IL-2 2.5 ng/mL) [19]	7.47
NK-92 (IL-2 2.5 ng/mL) [20]	6.86
NK-YS (IL-2 2.5 ng/mL) [21]	6.92
NKL (IL-2 2.5 ng/mL) [22]	8.62
SNK-6 (IL-2 2.5 ng/mL) [23]	5.51
YT (IL-2 2.5 ng/mL) [24]	6.74
[15]	9.44
[25]	7.48
[26]	9.01
[27]	9.22
[28]	6.78

CC(C)(C)c1cnc(CSc2cnc(NC(=O)C3CCNCC3)s2)o1 [SNS-032] (max concentration tested 10000 nM)
percent inhibition of viability [%]
Conditions	1 nM	10 nM	100 nM	1000 nM	10000 nM
DERL-7 (IL-2 2.5 ng/mL) [2]	0.08	-3.51	77.5	100	100
IMC-1 (IL-2 20 ng/mL) [3]	-4.98	-6.51	97.6	99.1	98.8
KAI3 (IL-2 2.5 ng/mL) [4]	-8.15	9.55	57.9	103	98.3
KHYG-1 (IL-2 2.5 ng/mL) [5]	-2.99	-6.55	4.29	102	102
NK-92 (IL-2 2.5 ng/mL) [6]	-11.5	-4.07	11.5	98.8	101
NK-YS (IL-2 2.5 ng/mL) [7]	-1.14	9.07	83.6	100	99.8
NKL (IL-2 2.5 ng/mL) [8]	-10.4	11.6	97.8	106	103
SNK-6 (IL-2 2.5 ng/mL) [9]	17.9	2.01	31.7	54	38
YT (IL-2 2.5 ng/mL) [10]	-0.35	4.14	57.7	103	101
[1]	2.77	0	29.2	100	100
[11]	-14.2	-9.83	88.9	98.2	98.8
[12]	-12.8	-19.9	79.9	91.5	93.9
[13]	-21	-13.7	80.7	94.5	96.5
[14]	-17.4	-11.5	48.5	98.1	99

Conditions	drug sensitivity score
DERL-7 (IL-2 2.5 ng/mL) [16]	26.9
IMC-1 (IL-2 20 ng/mL) [17]	29.5
KAI3 (IL-2 2.5 ng/mL) [18]	25.1
KHYG-1 (IL-2 2.5 ng/mL) [19]	18.7
NK-92 (IL-2 2.5 ng/mL) [20]	19.8
NK-YS (IL-2 2.5 ng/mL) [21]	29
NKL (IL-2 2.5 ng/mL) [22]	32.3
SNK-6 (IL-2 2.5 ng/mL) [23]	13.4
YT (IL-2 2.5 ng/mL) [24]	24.9
[15]	22.3
[25]	28.1
[26]	26.1
[27]	26.6
[28]	23.9

CNC(=O)CN1CCC(Oc2cc3c(Nc4cccc(Cl)c4F)ncnc3cc2OC)CC1 [Sapitinib] (max concentration tested 1000 nM)
percent inhibition of viability [%]
Conditions	0.1 nM	1 nM	10 nM	100 nM	1000 nM
DERL-7 (IL-2 2.5 ng/mL) [2]	3.06	0.6	-4.76	-5	-2.82
IMC-1 (IL-2 20 ng/mL) [3]	0.18	0.99	5.5	4.61	15.1
KAI3 (IL-2 2.5 ng/mL) [4]	-6.57	-1.42	0.58	-5.73	11.3
KHYG-1 (IL-2 2.5 ng/mL) [5]	0.69	2.55	10.2	2.53	4.41
NK-92 (IL-2 2.5 ng/mL) [6]	-3.59	-7.59	7.58	-10.8	6.39
NK-YS (IL-2 2.5 ng/mL) [7]	0.21	0.23	5.94	0.04	5.37
NKL (IL-2 2.5 ng/mL) [8]	-6.69	-1.96	-5.01	0.25	5.26
SNK-6 (IL-2 2.5 ng/mL) [9]	3.05	16.8	21.3	25.7	25.6
YT (IL-2 2.5 ng/mL) [10]	1.69	2.8	8.28	2.39	14.2
[1]	3.94	0.06	-2.58	3.86	22.1
[11]	3.61	-8.96	0.62	-8.22	4.72
[12]	6.72	-12.5	3.2	-20.9	-10.5
[13]	-5.36	0.45	2.66	4.26	5.15
[14]	-11.4	-8.98	0.1	-3.48	6.33

Conditions	drug sensitivity score
DERL-7 (IL-2 2.5 ng/mL) [16]	0
IMC-1 (IL-2 20 ng/mL) [17]	0.17
KAI3 (IL-2 2.5 ng/mL) [18]	0
KHYG-1 (IL-2 2.5 ng/mL) [19]	0
NK-92 (IL-2 2.5 ng/mL) [20]	0
NK-YS (IL-2 2.5 ng/mL) [21]	0
NKL (IL-2 2.5 ng/mL) [22]	0
SNK-6 (IL-2 2.5 ng/mL) [23]	8.21
YT (IL-2 2.5 ng/mL) [24]	0.02
[15]	1.29
[25]	0
[26]	0
[27]	0
[28]	0
